# In US11034648B2, “Cystobactamide derivatives” (priority 2017, dated 2021):
# What was measured:
# [1] = tested on: E. coli WT-III [marRΔ74bp]; format: cell-based; conditions: fluoroquinolone-resistant mutant; Table 2a
# Experimental: (§1) Cystobactamid derivatives synthesized were tested against relevant Gram negative and positive bacteria of clinical interest. Experimental procedures used for the biological characterization of the compounds are the same as previously described in WO 2016/082934.
# (§2) Bacterial strains used in susceptibility assays (minimum inhibitory concentration, MIC) were either part of our internal strain collection or purchased from the German Collection of Microorganisms and Cell Cultures (Deutsche Sammlung von Mikroorganismen und Zellkulturen, DSMZ) and the American Type Culture Collection (ATCC). The susceptible E. coli strain (WT) and fluoroquinolone-resistant mutants E. coli WT-3 and WT-III were kindly provided by Prof Dr. P. Heisig, Pharmaceutical Biology and Microbiology, University of Hamburg, Germany. The efflux-deficient strain P. aeruginosa ΔmexAB was kindly provided by Prof Dr. S. Häußler, Institute for Molecular Bacteriology, TWINCORE, Hannover, Germany. All compounds were prepared as DMSO stocks and MIC values were determined in standard microbroth dilution assays in 96-well MTPs as described in Baumann et al., Angew Chem Int Ed Engl. 2014; 53(52):14605-9. In brief, overnight cultures of bacteria were diluted in either tryptic soy broth (TSB: 1.7% peptone casein, 0.3% peptone soymeal, 0.25% glucose, 0.5% NaCl, 0.25% K2HPO4; pH 7.3; S. pneumoniae and E. faecalis) or cation-adjusted Müller-Hinton Broth (BBL™, BD; all other bacteria) and adjusted to 10^4-10^6 cfu/mL. Bacteria were grown in the presence of the derivatives in serial dilution for approx. 16 h at 30-37° C. MIC values were determined and were defined as the antibiotic concentration at which no visual growth of bacteria was observed.
# E. coli ΔtolC = experiment: microbe, parasite or virus in culture; format: cell-based; conditions: Escherichia coli, 16 h, read-out: MIC E. coli ΔtolC, small panel, Tables 1a/1b; no visual growth after approx. 16 h
# Summary of the method: (§3)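 Overnight cultures were diluted in cation-adjusted Müller-Hinton broth to 10^4-10^6 cfu/mL and grown with serially diluted compound (from DMSO stocks) for approx. 16 h at 30-37° C. MIC is the lowest concentration with no visible bacterial growth.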
# [2] = tested on: E. coli WT-3 [gyrA(S83L,D87G)]; experiment: microbe, parasite or virus in culture; format: cell-based; conditions: Escherichia coli, read-out: MIC E. coli WT-3 [gyrA(S83L,D87G)]
# Summary of the method: as §3
# P. aeruginosa ΔmexAB = experiment: microbe, parasite or virus in culture; format: cell-based; conditions: Pseudomonas aeruginosa, 16 h, read-out: MIC P. aeruginosa ΔmexAB, efflux-deficient strain; small panel, Tables 1a/1b
# Summary of the method: as §3
# P. vulgaris = experiment: MIC, microbroth dilution susceptibility assay (Table 2b); format: cell-based; conditions: Proteus vulgaris, larger panel
# Experimental: as §1, §2
# E. faecalis = experiment: as above; format: cell-based; conditions: Enterococcus faecalis, larger panel
# Experimental: as §1, §2
# P. aeruginosa ESBL 1 = experiment: as above; format: cell-based; conditions: Pseudomonas aeruginosa, ESBL1, larger panel
# Experimental: as §1, §2
# E. cloacae = experiment: as above; format: cell-based; conditions: Enterobacter cloacae, larger panel
# Experimental: as §1, §2
# S. epidermidis = experiment: as above; format: cell-based; conditions: Staphylococcus epidermidis, larger panel
# Experimental: as §1, §2
# A. baumannii = experiment: as above; format: cell-based; conditions: Acinetobacter baumannii, larger panel
# Experimental: as §1, §2
# C. freundii = experiment: as above; format: cell-based; conditions: Citrobacter freundii, larger panel
# Experimental: as §1, §2
# S. marcescens = experiment: as above; format: cell-based; conditions: Serratia marcescens, larger panel
# Experimental: as §1, §2
# E. aerogenes = experiment: as above; format: cell-based; conditions: Klebsiella aerogenes, larger panel
# Experimental: as §1, §2
# P. aeruginosa ESBL 2 = experiment: as above; format: cell-based; conditions: Pseudomonas aeruginosa, ESBL2, larger panel
# Experimental: as §1, §2
# P. mirabilis = experiment: as above; format: cell-based; conditions: Proteus mirabilis, larger panel
# Experimental: as §1, §2
# K. pneumoniae = experiment: as above; format: cell-based; conditions: Klebsiella pneumoniae, larger panel
# Experimental: as §1, §2
# P. aeruginosa DSM-46316 = experiment: MIC, microbroth dilution susceptibility assay; format: cell-based; conditions: Pseudomonas aeruginosa, DSM46316; large panel, Table 2a
# Summary of the method: as §3
# K. pneumoniae DSM-30104 = experiment: MIC, microbroth dilution susceptibility assay; format: cell-based; conditions: Klebsiella pneumoniae, DSM30104; large panel, Table 2a
# Summary of the method: as §3
# C. freundii DSM-30039 = experiment: MIC, microbroth dilution susceptibility assay; format: cell-based; conditions: Citrobacter freundii, DSM30039; large panel, Table 2a
# Summary of the method: as §3
# E. faecalis ATCC-29212 = experiment: MIC, microbroth dilution susceptibility assay; format: cell-based; conditions: Enterococcus faecalis, ATCC29212; large panel, Table 2a; TSB
# Summary of the method: as §3
# S. pneumoniae DSM-20566 = experiment: MIC, microbroth dilution susceptibility assay; format: cell-based; conditions: Streptococcus pneumoniae, DSM20566; large panel, Table 2a; TSB
# Summary of the method: as §3
# P. vulgaris DSM-2140 = experiment: MIC, microbroth dilution susceptibility assay; format: cell-based; conditions: Proteus vulgaris, DSM2140; large panel, Table 2a
# Summary of the method: as §3
# P. aeruginosa DSM-24600 = experiment: MIC, microbroth dilution susceptibility assay; format: cell-based; conditions: Pseudomonas aeruginosa, DSM24600; large panel, Table 2a
# Summary of the method: as §3
# S. aureus Newman = experiment: MIC, microbroth dilution susceptibility assay; format: cell-based; conditions: Staphylococcus aureus, NEWMAN; small panel, Tables 1a/1b; read-out: MIC S. aureus Newman
# Summary of the method: as §3
# S. aureus ATCC-29213 = experiment: MIC, microbroth dilution susceptibility assay; format: cell-based; conditions: Staphylococcus aureus, ATCC29213; large panel, Table 2a
# Summary of the method: as §3
# P. aeruginosa WT PA14 = experiment: MIC, microbroth dilution susceptibility assay; format: cell-based; conditions: Pseudomonas aeruginosa, PA14, small panel, Tables 1a/1b; read-out: MIC P. aeruginosa WT PA14
# Summary of the method: as §3
# P. mirabilis DSM-2140 = experiment: MIC, microbroth dilution susceptibility assay; format: cell-based; conditions: Proteus mirabilis, DSM2140; large panel, Table 2a
# Summary of the method: as §3
# E. aerogenes DSM-30053 = experiment: MIC, microbroth dilution susceptibility assay; format: cell-based; conditions: Klebsiella aerogenes, DSM30053; large panel, Table 2a
# Summary of the method: as §3
# E. coli WT = experiment: MIC, microbroth dilution susceptibility assay; format: cell-based; conditions: Escherichia coli
# Summary of the method: as §3
# S. marcescens DSM-30121 = experiment: MIC, microbroth dilution susceptibility assay; format: cell-based; conditions: Serratia marcescens, DSM30121; large panel, Table 2a
# Summary of the method: as §3
# E. coli WT DSM-1116 = experiment: MIC, microbroth dilution susceptibility assay; format: cell-based; conditions: Escherichia coli, DSM1116; small panel, Tables 1a/1b; no visual growth after approx. 16 h; read-out: MIC E. coli WT DSM-1116
# Summary of the method: as §3
# E. cloacae DSM-30054 = experiment: MIC, microbroth dilution susceptibility assay; format: cell-based; conditions: Enterobacter cloacae, DSM30054; large panel, Table 2a
# Summary of the method: as §3
# S. epidermidis DSM-28765 = experiment: MIC, microbroth dilution susceptibility assay; format: cell-based; conditions: Staphylococcus epidermidis, DSM28765; large panel, Table 2a
# Summary of the method: as §3
# A. baumannii DSM-30008 = experiment: MIC, microbroth dilution susceptibility assay; format: cell-based; conditions: Acinetobacter baumannii, DSM30008; large panel, Table 2a
# Summary of the method: as §3
# E. coli gyrase = molecular target: T1, E. coli gyrase (Escherichia coli, UniProt P0AES4+P0AES6); experiment: E. coli gyrase supercoiling (sc) assay; format: biochemical; conditions: supercoiling assay kit, agarose gel quantification; read-out: Ec gyrase sc IC50
# T1 construct: purchased Inspiralis
# Experimental: The target activity on E. coli gyrase was assessed as described in Baumann et al., Angew Chem Int Ed Engl. 2014; 53(52):14605-9 using a commercial supercoiling (sc) assay kit from Inspiralis according to the manufacturer's instructions. The samples were separated on 0.8% (w/v) agarose gels and relaxed and supercoiled plasmid was visualized by ethidium bromide staining. Half-inhibitory concentrations (IC50) were calculated after image analysis and quantification (ImageJ) based on sigmoidal curve fitting (OriginPro).
SMILES,MIC E. coli WT-III [marRΔ74bp] [1] [µg/mL],MIC (E. coli ΔtolC) [µg/mL],MIC [2] [µg/mL],MIC (P. aeruginosa ΔmexAB) [µg/mL],MIC (P. vulgaris) [µg/mL],MIC (E. faecalis) [µg/mL],MIC (P. aeruginosa ESBL 1) [µg/mL],MIC (E. cloacae) [µg/mL],MIC (S. epidermidis) [µg/mL],MIC (A. baumannii) [µg/mL],MIC (C. freundii) [µg/mL],MIC (S. marcescens) [µg/mL],MIC (E. aerogenes) [µg/mL],MIC (P. aeruginosa ESBL 2) [µg/mL],MIC (P. mirabilis) [µg/mL],MIC (K. pneumoniae) [µg/mL],MIC (P. aeruginosa DSM-46316) [µg/mL],MIC (S. aureus Newman) [µg/mL],MIC (P. aeruginosa WT PA14) [µg/mL],MIC (E. coli WT DSM-1116) [µg/mL],further results
"CC(C)Oc1c(NC(=O)c2ccc(NC(=O)[C@H](CC(N)=O)NC(=O)c3ccc(NC(=O)c4ccc(C#N)cc4)cc3)cc2)ccc(C(=O)Nc2ccc(C(=O)O)cc2)c1O [Compound 44, (S)-4-(4-(4-(4-amino-2-(4-(4-cyanobenzamido)benzamido)-4-oxobutanamido)benzamido)-2-hydroxy-3-isopropoxybenzamido)benzoic acid]",0.25,0.06,0.13,0.25,0.25,0.5,4,0.25,< 0.03,1,< 0.03,> 64,0.06,4,> 64,0.5,2,0.25,2,0.5,"MIC (K. pneumoniae DSM-30104): 0.5 µg/mL; MIC (C. freundii DSM-30039): < 0.03 µg/mL; MIC (E. faecalis ATCC-29212): 0.5 µg/mL; MIC (S. pneumoniae DSM-20566): 0.13 µg/mL; MIC (P. vulgaris DSM-2140): 0.25 µg/mL; MIC (P. aeruginosa DSM-24600): > 64 µg/mL; MIC (S. aureus ATCC-29213): 0.5 µg/mL; MIC (P. mirabilis DSM-2140): 64 µg/mL; MIC (E. aerogenes DSM-30053): 1 µg/mL; MIC (E. coli WT; large panel, Table 2a): 0.25 µg/mL; MIC (E. coli WT; larger panel, Table 2b): 0.25 µg/mL; MIC (S. marcescens DSM-30121): > 64 µg/mL; MIC (E. cloacae DSM-30054): 0.25 µg/mL; MIC (S. epidermidis DSM-28765): 0.06 µg/mL; MIC (A. baumannii DSM-30008): 1 µg/mL"
"C/C(=C\c1ccc(O)cc1)C(=O)Nc1ccc(C(=O)N[C@@H](CC(N)=O)C(=O)Nc2ccc(C(=O)Nc3ccc(C(=O)Nc4ccc(C(=O)O)cc4)c(O)c3OC(C)C)cc2)cc1 [Compound 53, (S,E)-4-(4-(4-(4-amino-2-(4-(3-(4-hydroxyphenyl)-2-methylacrylamido)benzamido)-4-oxobutanamido)benzamido)-2-hydroxy-3-isopropoxybenzamido)benzoic acid]",0.06,0.06,0.06,0.25,–,–,–,–,–,–,–,–,–,–,–,–,2,0.25,1,0.25,"MIC (K. pneumoniae DSM-30104): > 64 µg/mL; MIC (C. freundii DSM-30039): 0.13 µg/mL; MIC (E. faecalis ATCC-29212): 0.5 µg/mL; MIC (S. pneumoniae DSM-20566): 2 µg/mL; MIC (P. vulgaris DSM-2140): 0.13 µg/mL; MIC (P. aeruginosa DSM-24600): > 64 µg/mL; MIC (S. aureus ATCC-29213): 0.5 µg/mL; MIC (P. mirabilis DSM-2140): 2 µg/mL; MIC (E. aerogenes DSM-30053): 1 µg/mL; MIC (E. coli WT; large panel, Table 2a): 0.13 µg/mL; MIC (S. marcescens DSM-30121): 64 µg/mL; MIC (E. cloacae DSM-30054): > 64 µg/mL; MIC (S. epidermidis DSM-28765): 0.25 µg/mL; MIC (A. baumannii DSM-30008): 0.25 µg/mL"
"CO[C@@H](C(N)=O)[C@H](NC(=O)c1ccc(NC(=O)c2ccc(C#N)cc2)cc1)C(=O)Nc1ccc(C(=O)Nc2ccc(C(=O)Nc3ccc(C(=O)O)cc3)c(O)c2OC(C)C)cc1 [Compound 109, 4-(4-(4-((2S,3R)-4-amino-2-(4-(4-cyanobenzamido)benzamido)-3-methoxy-4-oxobutanamido)benzamido)-2-hydroxy-3-isopropoxybenzamido)benzoic acid]",–,< 0.03,0.25,< 0.03,0.125,0.125,2,> 64,< 0.03,1,< 0.03,> 64,2,1,4,8,–,< 0.03,0.5,< 0.03,"IC50 (E. coli gyrase): 0.4 µM; MIC (E. coli WT; larger panel, Table 2b): 2 µg/mL"
